Calls of active or inactive are those of the source.
Tests used:
[1] = viability of PTEN-deleted HCT116 cells – cell-based, HCT116 PTEN knockout, dose response (AID 1047); format: functional;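 note: HCT116 colon tumor cells with PTEN knocked out; cells exposed to compound for 60 hours before readout; potency for loss of cell viability measured by luminescence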
Streptococcus = test: GAS UMAA2166 growth inhibition – luminescence, BacTiterGlo, counter-screen for streptokinase expression inhibitor project, dose response (AID 1915); format: functional, organism-based;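 note: potency for reduction of bacterial viability or growth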
[2] = viability of HCT116 lacking mutant beta-catenin – cell-based, human colon tumor, dose response (AID 1045); format: functional;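 note: HCT116 colon tumor cells with beta catenin knocked out; cells exposed to compound for 60 hours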
[3] = target: T1, Corticotropin-releasing factor receptor 2/Corticotropin-releasing factor-binding protein (Homo sapiens, UniProt P24387+Q13324); test: activators of CRF receptor 2 with binding protein – uHTS hits, confirmation (AID 602473); format: functional; conditions: read-out: EC50_Mean
T1 sequence (Q13324 whole entry): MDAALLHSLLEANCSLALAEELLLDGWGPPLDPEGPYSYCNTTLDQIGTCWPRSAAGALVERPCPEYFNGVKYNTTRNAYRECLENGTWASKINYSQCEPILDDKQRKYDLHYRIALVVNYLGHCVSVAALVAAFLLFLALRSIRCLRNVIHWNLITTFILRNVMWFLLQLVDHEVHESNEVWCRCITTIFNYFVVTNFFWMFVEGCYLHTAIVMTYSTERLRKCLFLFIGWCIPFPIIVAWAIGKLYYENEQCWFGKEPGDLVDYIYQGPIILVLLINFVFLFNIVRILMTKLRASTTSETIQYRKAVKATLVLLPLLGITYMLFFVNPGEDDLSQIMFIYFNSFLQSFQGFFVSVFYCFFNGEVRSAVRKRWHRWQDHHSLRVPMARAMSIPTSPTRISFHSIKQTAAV
T1 sequence (P24387 whole entry): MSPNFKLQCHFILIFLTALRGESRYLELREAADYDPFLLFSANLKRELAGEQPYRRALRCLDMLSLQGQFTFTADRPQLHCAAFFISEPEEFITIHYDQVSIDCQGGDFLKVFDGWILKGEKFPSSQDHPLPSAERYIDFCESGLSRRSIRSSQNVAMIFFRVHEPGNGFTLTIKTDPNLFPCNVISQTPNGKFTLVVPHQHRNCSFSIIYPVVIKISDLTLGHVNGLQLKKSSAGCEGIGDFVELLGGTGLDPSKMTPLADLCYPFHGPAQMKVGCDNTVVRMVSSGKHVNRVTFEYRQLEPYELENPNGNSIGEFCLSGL

BJ [4] = test: cells; format: functional, cell-based; conditions: Homo sapiens
BJ [5] = test: growth inhibition of engineered Ras-driven BJ cells – cell-based, alamar blue fluorescence, cherrypicked samples, dose response (AID 2631); format: functional; conditions: Homo sapiens;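 note: confirmatory dose-response assay in RAS-dependent BJ fibroblasts engineered with TERT, LT and ST, with cytotoxicity read by fluorescence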
BJ [6] = test: BJ-TERT-LT-ST fibroblast viability loss – cell-based, RAS-independent, luminescence, dose response (AID 1935); format: functional; conditions: Homo sapiens;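 note: BJ fibroblasts immortalized with TERT plus LT and ST oncogenes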
[7] = tested on: Streptococcus sp. 'group A'; test: Streptococcus pyogenes SK(-)GAS viability under kanamycin – luminescence, BacTiterGlo, confirmation, counter-screen for streptokinase expression inhibitor project, dose response (AID 1900); format: functional, organism-based
[8] = target: T2, Histone-lysine N-methyltransferase NSD2 (Homo sapiens, UniProt O96028); format: biochemical
T2 sequence (O96028 whole entry): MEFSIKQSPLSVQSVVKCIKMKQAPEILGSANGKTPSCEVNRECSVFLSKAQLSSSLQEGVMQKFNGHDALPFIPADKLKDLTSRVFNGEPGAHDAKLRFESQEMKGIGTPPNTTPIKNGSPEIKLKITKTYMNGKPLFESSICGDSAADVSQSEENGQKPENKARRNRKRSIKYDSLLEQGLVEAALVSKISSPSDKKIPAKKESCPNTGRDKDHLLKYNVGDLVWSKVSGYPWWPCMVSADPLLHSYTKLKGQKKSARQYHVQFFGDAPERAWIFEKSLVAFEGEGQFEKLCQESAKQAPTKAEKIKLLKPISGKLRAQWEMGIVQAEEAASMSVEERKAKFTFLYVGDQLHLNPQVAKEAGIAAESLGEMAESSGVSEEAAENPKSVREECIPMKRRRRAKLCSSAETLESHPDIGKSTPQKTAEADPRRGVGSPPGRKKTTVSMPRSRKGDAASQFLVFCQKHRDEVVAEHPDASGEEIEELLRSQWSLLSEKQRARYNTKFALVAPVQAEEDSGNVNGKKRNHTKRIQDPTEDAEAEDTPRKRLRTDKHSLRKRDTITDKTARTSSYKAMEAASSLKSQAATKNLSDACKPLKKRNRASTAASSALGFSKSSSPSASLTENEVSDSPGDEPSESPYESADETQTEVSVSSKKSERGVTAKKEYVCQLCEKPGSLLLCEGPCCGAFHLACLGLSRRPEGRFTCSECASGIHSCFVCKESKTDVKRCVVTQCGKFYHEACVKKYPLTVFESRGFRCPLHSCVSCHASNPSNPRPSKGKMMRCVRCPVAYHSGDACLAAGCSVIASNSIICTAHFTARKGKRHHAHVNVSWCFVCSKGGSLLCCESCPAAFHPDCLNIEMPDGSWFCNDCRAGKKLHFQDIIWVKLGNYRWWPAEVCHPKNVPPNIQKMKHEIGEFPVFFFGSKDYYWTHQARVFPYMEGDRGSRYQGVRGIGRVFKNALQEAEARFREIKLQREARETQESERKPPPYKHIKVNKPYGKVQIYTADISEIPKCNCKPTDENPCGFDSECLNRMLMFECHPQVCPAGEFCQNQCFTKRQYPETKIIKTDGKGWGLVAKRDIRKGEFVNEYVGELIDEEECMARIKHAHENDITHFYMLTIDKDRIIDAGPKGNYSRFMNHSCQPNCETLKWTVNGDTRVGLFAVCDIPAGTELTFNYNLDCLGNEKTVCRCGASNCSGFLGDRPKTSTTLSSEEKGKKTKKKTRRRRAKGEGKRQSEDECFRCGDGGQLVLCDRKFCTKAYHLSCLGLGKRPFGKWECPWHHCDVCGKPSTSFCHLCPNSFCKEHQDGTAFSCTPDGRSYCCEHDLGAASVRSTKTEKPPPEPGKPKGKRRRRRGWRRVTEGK

[9] = target: Sphingosine 1-phosphate receptor 2 (Homo sapiens, UniProt O95136); test: Dose Response Cell Based Assay for Antagonists of the S1P2 Receptor. [Related pubchem assays: 856, 736 ]; format: functional
[10] = DRD fibroblast viability loss – cell-based, non-viral oncogenic, luminescence, dose response (AID 1934); format: functional; conditions: Homo sapiens
BJ [11] = test: BJ-TERT fibroblast viability loss – cell-based, RAS-independent, luminescence, dose response (AID 1933); format: functional; conditions: Homo sapiens
[12] = THP-1 cell cytotoxicity, dose response, cytotoxicity control for non-replicating M. tuberculosis project (AID 489025); format: functional
cells = format: functional
[13] = Vero E6 cell cytotoxicity, dose response, cytotoxicity control for non-replicating M. tuberculosis project, secondary assay (AID 492998); format: functional, VeroE6; conditions: Vero C1008
[14] = HepG2 cell cytotoxicity, dose response, cytotoxicity control for non-replicating M. tuberculosis project (AID 489018); format: functional; conditions: Mycobacterium tuberculosis
[15] = target: T3, Mannose-6-phosphate isomerase (Homo sapiens, UniProt P34949); test: MPI inhibition at elevated mannose 6-phosphate – biochemical, fluorescence intensity, high mannose 6-phosphate, primary screen (AID 1220)
T3 sequence (P34949 whole entry): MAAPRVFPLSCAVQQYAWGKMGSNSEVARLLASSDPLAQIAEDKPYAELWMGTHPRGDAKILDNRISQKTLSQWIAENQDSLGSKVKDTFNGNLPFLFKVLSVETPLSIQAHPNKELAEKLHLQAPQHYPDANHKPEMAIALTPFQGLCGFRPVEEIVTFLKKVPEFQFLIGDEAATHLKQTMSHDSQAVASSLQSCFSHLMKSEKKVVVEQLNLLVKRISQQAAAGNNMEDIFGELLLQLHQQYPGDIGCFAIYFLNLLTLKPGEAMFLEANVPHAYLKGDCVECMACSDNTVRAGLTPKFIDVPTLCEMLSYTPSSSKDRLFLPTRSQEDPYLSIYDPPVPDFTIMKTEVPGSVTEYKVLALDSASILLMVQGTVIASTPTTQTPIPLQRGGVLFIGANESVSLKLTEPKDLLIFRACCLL

[16] = NIH-3T3 fibroblast cytotoxicity, dose response, cytotoxicity control, cell-based, fluorescence, Alamar Blue, secondary assay (AID 2327); format: functional;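 note: NIH-3T3 mouse fibroblasts cultured with fluconazole at 8 µg/mL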
[17] = microbe, parasite or virus in culture; format: functional; conditions: Mycobacterium tuberculosis
[18] = fluconazole-exposed Candida albicans growth modulators – fluorescence, retest, confirmation (AID 2467); format: functional, cell-based
INS1 = test: INS-1E survival protection against cytokine death – cell-based, luminescence, retest, dose response (AID 449756); format: functional; conditions: Rattus norvegicus;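 note: cell death triggered by IL-1 beta plus TNF-alpha plus IFN-gamma mixture; protective hits raise ATP signal compared with cytokine alone wells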
Mucolipin-3 = target: T4, Mucolipin-3 (Homo sapiens, UniProt Q8TDD5); test: Dose response cell-based high-throughput screening assay for agonists of the transient receptor potential channel ML3 (TRPML3). [Related pubchem assays: 1526, 1424, 1448 ]; format: functional
T4 sequence (Q8TDD5 whole entry): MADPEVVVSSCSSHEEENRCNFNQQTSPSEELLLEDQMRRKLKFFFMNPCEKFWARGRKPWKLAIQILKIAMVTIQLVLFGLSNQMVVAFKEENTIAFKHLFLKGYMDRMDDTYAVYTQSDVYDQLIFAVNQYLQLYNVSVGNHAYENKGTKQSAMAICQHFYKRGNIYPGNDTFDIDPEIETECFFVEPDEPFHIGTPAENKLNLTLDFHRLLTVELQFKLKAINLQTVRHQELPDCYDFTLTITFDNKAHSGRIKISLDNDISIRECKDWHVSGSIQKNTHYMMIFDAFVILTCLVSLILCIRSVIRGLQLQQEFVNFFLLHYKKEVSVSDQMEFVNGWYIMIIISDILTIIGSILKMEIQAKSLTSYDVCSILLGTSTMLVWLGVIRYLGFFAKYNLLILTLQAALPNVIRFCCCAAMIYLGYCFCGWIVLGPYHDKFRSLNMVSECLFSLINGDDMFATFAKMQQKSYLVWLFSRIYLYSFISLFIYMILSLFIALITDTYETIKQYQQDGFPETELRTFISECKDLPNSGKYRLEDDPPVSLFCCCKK

Ion channel NompC = Ion channel NompC (Danio rerio, UniProt Q7T1G6); test: Fluorescence counterscreen assay for TRPML3 agonists: dose response cell-based high-throughput screening assay to identify agonists of the transient receptor potential channel N1 (TRPN1). [Related pubchem assays: 1526, 1424, 1448 ]; format: functional
[19] = Luminescence Cell-Based Dose Retest to Confirm Inhibitors of Cancer Stem Cells. [Related pubchem assays (depositor defined):AID2717, AID2721]; format: functional; conditions: Homo sapiens
Bcl-2-related protein A1 [20] = target: T5, Bcl-2-related protein A1 (Mus musculus, UniProt Q07440); test: Bfl-1 binding inhibitors, SAR follow-up, biochemical, fluorescence polarization (AID 1070)
T5 sequence (Q07440 whole entry): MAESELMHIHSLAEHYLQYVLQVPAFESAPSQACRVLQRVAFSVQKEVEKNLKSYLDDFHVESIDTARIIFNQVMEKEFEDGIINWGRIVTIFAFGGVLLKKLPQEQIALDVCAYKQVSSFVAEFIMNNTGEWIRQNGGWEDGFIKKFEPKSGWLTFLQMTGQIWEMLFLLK

Bcl-2-related protein A1 [21] = target: T5, Bcl-2-related protein A1; test: small-molecule antagonists of Bfl-1/BH3 interaction – biochemical, TR-FRET, mouse Bfl-1, confirmation (AID 621);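 note: TR-FRET binding of GST-Bfl-1 to FITC-labelled Bid peptide via terbium antibody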

Sequence of Ion channel NompC (Q7T1G6 whole entry): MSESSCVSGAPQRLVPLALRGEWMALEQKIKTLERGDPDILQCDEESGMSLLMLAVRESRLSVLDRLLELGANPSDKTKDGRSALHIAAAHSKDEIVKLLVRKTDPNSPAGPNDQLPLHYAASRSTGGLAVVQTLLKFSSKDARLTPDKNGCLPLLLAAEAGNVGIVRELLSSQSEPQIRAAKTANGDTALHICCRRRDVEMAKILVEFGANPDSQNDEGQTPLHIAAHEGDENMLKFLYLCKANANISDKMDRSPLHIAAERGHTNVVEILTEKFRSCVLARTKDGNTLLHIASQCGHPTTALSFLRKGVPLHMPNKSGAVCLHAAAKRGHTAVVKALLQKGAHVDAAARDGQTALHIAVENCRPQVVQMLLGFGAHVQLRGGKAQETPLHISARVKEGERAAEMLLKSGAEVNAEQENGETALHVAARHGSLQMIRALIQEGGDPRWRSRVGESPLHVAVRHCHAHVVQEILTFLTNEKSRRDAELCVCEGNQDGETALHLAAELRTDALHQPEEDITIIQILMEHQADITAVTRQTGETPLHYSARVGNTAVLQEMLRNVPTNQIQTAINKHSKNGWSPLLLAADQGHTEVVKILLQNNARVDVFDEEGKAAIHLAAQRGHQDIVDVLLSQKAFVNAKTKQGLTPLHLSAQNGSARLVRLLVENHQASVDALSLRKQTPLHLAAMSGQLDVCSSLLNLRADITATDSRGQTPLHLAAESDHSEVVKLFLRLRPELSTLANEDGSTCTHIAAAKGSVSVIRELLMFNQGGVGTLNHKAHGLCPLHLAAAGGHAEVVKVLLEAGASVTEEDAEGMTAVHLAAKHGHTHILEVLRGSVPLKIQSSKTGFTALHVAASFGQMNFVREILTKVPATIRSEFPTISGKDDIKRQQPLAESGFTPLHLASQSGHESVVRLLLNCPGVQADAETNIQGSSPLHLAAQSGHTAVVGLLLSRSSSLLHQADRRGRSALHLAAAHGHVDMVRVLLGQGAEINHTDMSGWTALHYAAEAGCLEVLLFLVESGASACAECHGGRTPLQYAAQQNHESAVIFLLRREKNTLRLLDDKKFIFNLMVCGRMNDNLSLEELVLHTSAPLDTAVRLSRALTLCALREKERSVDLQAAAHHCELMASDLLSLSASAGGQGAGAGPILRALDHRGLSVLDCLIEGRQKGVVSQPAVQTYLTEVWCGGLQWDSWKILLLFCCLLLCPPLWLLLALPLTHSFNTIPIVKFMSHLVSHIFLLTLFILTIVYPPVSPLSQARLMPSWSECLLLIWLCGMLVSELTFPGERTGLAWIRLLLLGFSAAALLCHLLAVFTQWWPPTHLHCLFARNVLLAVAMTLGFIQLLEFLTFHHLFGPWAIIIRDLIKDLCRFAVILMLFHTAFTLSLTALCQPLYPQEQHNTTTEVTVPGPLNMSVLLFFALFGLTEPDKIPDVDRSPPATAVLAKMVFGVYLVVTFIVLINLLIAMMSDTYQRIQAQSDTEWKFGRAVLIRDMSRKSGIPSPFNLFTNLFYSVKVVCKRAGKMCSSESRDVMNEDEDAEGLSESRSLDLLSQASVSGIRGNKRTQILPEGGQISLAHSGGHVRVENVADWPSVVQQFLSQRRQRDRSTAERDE
Sequence of Sphingosine 1-phosphate receptor 2 (O95136 whole entry): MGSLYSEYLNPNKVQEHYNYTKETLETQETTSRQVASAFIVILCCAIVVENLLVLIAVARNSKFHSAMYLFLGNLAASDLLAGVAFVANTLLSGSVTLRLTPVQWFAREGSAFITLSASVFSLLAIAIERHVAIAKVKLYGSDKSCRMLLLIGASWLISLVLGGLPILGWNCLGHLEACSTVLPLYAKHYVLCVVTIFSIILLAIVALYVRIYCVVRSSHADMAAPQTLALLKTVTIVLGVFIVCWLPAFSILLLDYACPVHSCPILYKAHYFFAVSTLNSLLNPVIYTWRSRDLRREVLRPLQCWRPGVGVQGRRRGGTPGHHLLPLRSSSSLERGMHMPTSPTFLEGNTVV

For `CCN1/C(=C\C=C\C2=[N+](CC)c3ccccc3C2(C)C)C(C)(C)c2ccccc21.[O-][Cl+3]([O-])([O-])[O-]`, the EC50 [1] was < 0.059 µM (active), the EC50 (Streptococcus) was 19.5 µM (active) and the EC50 [2] was < 0.059 µM (active). The EC50 [3] was 3.74 µM (active), the EC50 (BJ [4]) was 0.664 µM (active) and the EC50 (BJ [5]) was 0.273 µM (active). For the same compound, the EC50 (BJ [6]) was 2.01 µM (active), the EC50 [7] was 5.96 µM (active) and the AC50 [8] was > 20 µM (inactive). The IC50 [9] was 0.587 µM (active), the EC50 [10] was 0.903 µM (active) and the EC50 (BJ [11]) was 0.395 µM (inconclusive).
In the case of `CCOC(=O)N1CCN(Cc2cc(Cl)c3cccnc3c2O)CC1`, the CC50 [12] is reported as 4.35 µM (active), the IC50 (cells) is reported as 10.9 µM (active) and the CC50 [13] is reported as 2.64 µM (active). For the same compound, the CC50 [14] was 11 µM (active), the IC50 [15] was 11.8 µM (active) and the EC50 [16] was > 150 µM (inactive). For the same compound, the CC50 [17] was 4.95 µM (active), the EC50 [18] was 1.28 µM (active) and the AC50 (INS1) was 3.13 µM (active).
For `CN(CC(=O)ONC(=N)c1cccc([N+](=O)[O-])c1)S(=O)(=O)c1ccccc1`, the EC50 (Mucolipin-3) was 12.4 µM (not active) and the EC50 (Ion channel NompC) was > 29.9 µM (not active).
In the case of `O=C1C2C3C=CC(C3)C2C(=O)N1c1ccc(N2CCN(c3ccccn3)CC2)c([N+](=O)[O-])c1` (stereo not drawn), the EC50 (Mucolipin-3) is reported as > 29.9 µM (not active), the EC50 (Ion channel NompC) is reported as > 29.9 µM (not active) and the AC50 [19] is reported as 0.619 µM (active).
In the case of `Cc1cccc(N2CCN(C3=C(Cl)C(=O)N(c4ccc(Cl)c(Cl)c4)C3=O)CC2)c1`, the IC50 (Bcl-2-related protein A1 [20]) is reported as > 100 µM (not active) and the IC50 (Bcl-2-related protein A1 [21]) is reported as > 100 µM (not active).

Reference: ChEMBL document CHEMBL1201862, “PubChem BioAssay data set” (2004)
